Series [1] concerns Mus musculus. The following applies: acute; duration: 1 days; oral; gavage; F; B6C3F1; immunological.
The subject of series [2] is Cavia porcellus. The following applies: subchronic; duration: 90 days; oral; diet; M/F; Guinea Pig; lymphatic.
In series [3] the test system is Monkey. To be noted: oral, diet.
Series [4] deals with Rattus norvegicus. To be noted: repeat dose other; oral.
Series [5] deals with Phasianus colchicus. The following applies: oral.
Series [6] deals with Rattus norvegicus. The following applies: oral, gavage.
Series [7] concerns Rattus norvegicus. Put plainly: FEL; higher = less toxic. To be noted: reproduction developmental; duration: 54 days; oral; gavage; F; Wistar; generation: P0; P0: Whole Body: Mortality.
For series [8], the system named is Rattus norvegicus. To be noted: subchronic, oral, diet, Fischer 344, Hematology: Hct decrease, Hgb decrease, RBC decrease + Blood Chemistry: CPK increase + Absolute Organ Weight: Liver decrease + Relative ….
In series [9] the test system is Rattus norvegicus. To be noted: M/F; for NOAEL / LOAEL: chronic, duration: 2 years.
Series [10] concerns Tatera sp. To be noted: intermediate; duration: 3 months; Inhalation; M/F; Mongolian; neurological.
Series [11] concerns Homo sapiens. The following applies: clinical; duration: 3.5 hours; inhalation; M; neurological.
Series [12] has as its system Mus musculus. To be noted: repeat dose other; oral.
The subject of series [13] is Rattus norvegicus. The following applies: chronic; duration: 2 years; oral; diet; M/F; Carworth Farms E; hepatic.
Series [14] relates to Rattus norvegicus. The following applies: chronic, duration: 2 years, oral, diet.
Series [15] concerns Tytonidae. To be noted: oral.
Series [16] concerns Canidae. To be noted: chronic; duration: 26 weeks; oral; capsule; M/F; Beagle; gastrointestinal.
For series [17], the system named is Rattus norvegicus. The following applies: duration: 7 days, oral, M, Reduced proportion of time spent in open field central zones, increased immobility time in the open field, reduced proportion of time spent ….
For series [18], the system named is Canidae. The following applies: duration: 26 weeks, oral, capsule, M/F, Beagle, Liquid feces.
Series [19] deals with Canidae. The following applies: chronic, duration: 1 years, oral, diet, Dog Other, Cardiac toxicity and moderate-to-severe dilation of the right atrium.
Series [20] has as its system Oryctolagus sp. To be noted: reproduction developmental; duration: 12 days; oral; gavage; F; New Zealand; body weight.
For series [21], the system named is Sus scrofa. To be noted: short-term; duration: 19 days; oral; diet; F; Swedish Landrace/Large Yorkshire cross; reproductive.
The mark [22] stands for this setting: developmental, duration: 54 days, M/F, Wistar, generation: F1, F1: Developmental: Whole Body: Dams with Stillborn Pups + F1: Developmental: Whole Body: External Abnormalities + F1: Developmental: Whole ….
The mark [23] stands for this setting: developmental, duration: 54 days, generation: F1, F1: Developmental: Whole Body: Dams with Liveborn Pups.
Where [24] appears, read: reproduction developmental, duration: 28 days, M, Wistar, generation: P0, P0: Reproductive: Reproductive Organs: Reproductive Organ Histopathology + P0: Reproductive: Whole Body: Copulation Index.
The mark [25] stands for this setting: reproduction developmental, duration: 28 days, M, Wistar, generation: P0, P0: Whole Body: Copulation Index.
The mark [26] stands for this setting: reproduction developmental, duration: 54 days, F, Wistar, generation: P0, P0: Developmental: Uterus: Implantation + P0: General Toxicity: Whole Body: Clinical Observations + P0: General Toxicity: Whole Body: ….
[27] abbreviates: reproduction developmental, duration: 54 days, F, Wistar, generation: P0, P0: Reproductive: Reproductive Organs: Reproductive Organ Histopathology + P0: Reproductive: Whole Body: Copulation Index + P0: Reproductive….
The mark [28] stands for this setting: reproduction developmental, duration: 54 days, F, Wistar, generation: P0, P0: Reproductive: Whole Body: Length of Gestation.
Setting [29] is: reproduction developmental, duration: 54 days, F, Wistar, generation: P0, P0: Whole Body: Clinical Observations + P0: Whole Body: Maternal Body Weight + P0: Whole Body: Maternal Body Weight Change.
[30] abbreviates: reproduction developmental, duration: 54 days, F, Wistar, generation: P0, P0: Whole Body: Copulation Index.
[31] abbreviates: reproduction developmental, duration: 54 days, F, Wistar, generation: P0, P0: Whole Body: Length of Gestation + P0: Whole Body: Mortality.
Setting [32] is: reproduction developmental, duration: 54 days, M/F, Wistar, generation: F1, F1: Whole Body: Litter Weight.
The mark [33] stands for this setting: short-term, duration: 28 days, M, Wistar, Adrenal: Adrenal Gland Histopathology + Dermal: Ruffled Fur + Liver: Liver Histopathology + Nerve: Nervous Tissue Histopathology + ….
[34] abbreviates: short-term, duration: 28 days, M, Wistar, Adrenal: Adrenal Gland Weight, Relative + Liver: Liver Weight, Absolute + Lung: Lung Histopathology + Lung: Respiration Distress + Thymus: ….
Setting [35] is: short-term, duration: 28 days, M, Wistar, Endocrine: Adrenal: Adrenal Gland Histopathology + Endocrine: Adrenal: Adrenal Gland Weight, Absolute + Endocrine: Adrenal: Adrenal Gland ….
Setting [36] is: short-term, duration: 28 days, M, Wistar, Other Systems: Eye: Ophthalmology + Other Systems: Lung: Lung Histopathology + Other Systems: Lung: Respiration Distress.
[37] abbreviates: subchronic, duration: 54 days, F, Wistar, Adrenal: Adrenal Gland Histopathology + Liver: Liver Histopathology + Nerve: Nervous Tissue Histopathology + Whole Body: Function ….
The mark [38] stands for this setting: subchronic, duration: 54 days, F, Wistar, Dermal: Ruffled Fur + Lung: Lung Histopathology + Lung: Respiration Distress + Peripheral Nervous System: Paresis + Thymus: Thymus ….
Where [39] appears, read: subchronic, duration: 54 days, F, Wistar, Endocrine: Adrenal: Adrenal Gland Histopathology + Endocrine: Adrenal: Adrenal Gland Weight, Absolute + Endocrine: Adrenal: Adrenal Gland ….
[40] abbreviates: subchronic, duration: 54 days, F, Wistar, Other Systems: Eye: Ophthalmology + Other Systems: Lung: Lung Histopathology + Other Systems: Lung: Respiration Distress.
The mark [41] stands for this setting: reproduction developmental, oral, Reduced body weight gain preceding pregnancy reduced body weight gain in offspring during weaning period.
[42] abbreviates: oral, diet, reduced body weight gain.

On to `Clc1cc2c(cc1Cl)Oc1cc(Cl)c(Cl)cc1O2` [2,3,7,8-Tetrachlorodibenzo-p-dioxin], for which the NOAEL (as a rule, the highest dose or exposure tested at which no adverse effect was seen) worked out at 5e-06 mg/kg-day in series [1], 7e-07 mg/kg-day in series [2], 1e-06 mg/kg-day in series [4] and 1.4e-05 mg/kg-day in series [5]. Besides, the LOAEL (in general, the lowest dose or exposure tested at which an adverse effect was seen) came to 1.2e-07 mg/kg-day in series [3] (developmental, duration: 16 months, M/F, Rhesus, developmental); 1e-05 mg/kg-day in series [4]; 0.00014 mg/kg-day in series [5].
With `CCO[Si](CCC(F)(F)C(F)(F)C(F)(F)C(F)(F)C(F)(F)C(F)(F)F)(OCC)OCC` [Triethoxy((perfluorohexyl)ethyl)silane], the LOAEL stood at 100 mg/kg-day in series [6] (setting [22]); 100 mg/kg-day in series [6] (setting [23]); 125 mg/kg-day in series [6] (setting [24]); 100 mg/kg-day in series [6] (setting [26]); 125 mg/kg-day in [6] (setting [27]); 125 mg/kg-day in series [6] (setting [28]). In addition, the LOAEL came to 100 mg/kg-day in series [6] (setting [35]), 125 mg/kg-day in series [6] (setting [36]), 100 mg/kg-day in series [6] (setting [39]) and 125 mg/kg-day in [6] (setting [40]). Besides, the NOAEL in series [6] (setting [22]) is 50 mg/kg-day; in series [6] (setting [23]), 50 mg/kg-day; in series [6] (setting [24]), 100 mg/kg-day; in series [6] (setting [26]), 50 mg/kg-day; in [6] (setting [27]), 100 mg/kg-day; in series [6] (setting [28]) it was 100 mg/kg-day. In addition, the no observed adverse effect level (NOAEL) worked out at 50 mg/kg-day in series [6] (setting [35]); 125 mg/kg-day in series [6] (short-term, duration: 28 days, M, Wistar, Hematologic: Blood: Hematology, Unspecified + Urinary: Kidney: Urinalysis); 100 mg/kg-day in series [6] (setting [36]); 50 mg/kg-day in series [6] (setting [39]); 125 mg/kg-day in [6] (subchronic, duration: 54 days, F, Wistar, Hematologic: Blood: Hematology, Unspecified + Urinary: Kidney: Urinalysis); 100 mg/kg-day in series [6] (setting [40]). The NEL in [6] (reproduction developmental, duration: 28 days, M, Wistar, generation: P0, P0: Reproductive Organs: Reproductive Organ Histopathology) is 125 mg/kg-day; in series [6] (setting [25]), 100 mg/kg-day; in series [6] (reproduction developmental, duration: 54 days, F, Wistar, generation: P0, P0: Reproductive Organs: Reproductive Organ Histopathology + P0: Whole Body: Fertility Index), 125 mg/kg-day; in series [6] (reproduction developmental, duration: 54 days, F, Wistar, generation: P0, P0: Uterus: Implantation) it was 125 mg/kg-day; in [6] (setting [29]) it was 50 mg/kg-day; in [6] (setting [30]) it was 100 mg/kg-day. For the same compound, the NEL in series [6] (setting [31]) was found to be 100 mg/kg-day; in series [6] (reproduction developmental, duration: 54 days, M/F, Wistar, generation: F1, F1: Whole Body: Dams with Liveborn Pups), 125 mg/kg-day; in series [6] (reproduction developmental, duration: 54 days, M/F, Wistar, generation: F1, F1: Whole Body: Dams with Stillborn Pups + F1: Whole Body: External Abnormalities + F1: Whole Body: Litter Size + F1: Whole Body: Male Pups …), 125 mg/kg-day; in series [6] (setting [32]), 50 mg/kg-day; in series [6] (setting [33]), 50 mg/kg-day; in series [6] (short-term, duration: 28 days, M, Wistar, Adrenal: Adrenal Gland Weight, Absolute + Blood: Hematology, Unspecified + Eye: Ophthalmology, Unspecified + Kidney: Urinalysis, Unspecified…), 150 mg/kg-day. Besides, the NEL in series [6] (setting [34]) came to 100 mg/kg-day; in [6] (setting [37]), 50 mg/kg-day; in [6] (subchronic, duration: 54 days, F, Wistar, Adrenal: Adrenal Gland Weight, Absolute + Adrenal: Adrenal Gland Weight, Relative + Blood: Hematology, Unspecified + Eye: Ophthalmology, …) it was 150 mg/kg-day; in [6] (setting [38]), 100 mg/kg-day. Moreover, the LEL in [6] (setting [25]) turned out to be 125 mg/kg-day; in series [6] (setting [29]), 100 mg/kg-day; in series [6] (setting [30]), 125 mg/kg-day; in series [6] (setting [31]), 125 mg/kg-day; in series [6] (setting [32]), 100 mg/kg-day; in series [6] (setting [33]), 100 mg/kg-day. For the same compound, the LEL amounted to 150 mg/kg-day in [6] (setting [34]); 100 mg/kg-day in series [6] (setting [37]); 150 mg/kg-day in series [6] (setting [38]); 50 mg/kg-day in series [6] (subchronic, duration: 54 days, F, Wistar, Whole Body: Maternal Body Weight). The same compound came in with an FEL in series [7] of 125 mg/kg-day.
Consider `CC(Cl)(Cl)Cl` [1,1,1-Trichloroethane], for which the NOEL in series [8] (F) is 310 mg/kg-day; in series [8] (M/F), 480 mg/kg-day. In addition, the NOAEL is 8190 mg/m3 in series [9] (inhalation, liver histopathologic changes); 70 ppm in series [10]; 1000 mg/kg-day in series [12]. Moreover, in [11], the LOAEL is 955 mg/m3.
As to `ClC1=C(Cl)[C@]2(Cl)[C@@H]3[C@@H]4C[C@@H]([C@H]5O[C@@H]45)[C@@H]3[C@@]1(Cl)C2(Cl)Cl` [Dieldrin], the LOAEL in [9] (oral, diet, liver lesions) is 0.05 mg/kg-day; in [4] it was 0.2 mg/kg-day. Moreover, the NOAEL was 0.005 mg/kg-day in series [9] (oral, diet, liver lesions); 0.005 mg/kg-day in series [13]; 0.01 mg/kg-day in series [3] (subchronic, duration: 55 days, M, Squirrel Monkey, neurological); 0.005 mg/kg-day in series [14] (Liver: Lesions); 0.077 mg/kg-day in [15]; 0.02 mg/kg-day in series [4].
Take `CC1(C)C(C=C(Cl)C(F)(F)F)C1C(=O)OC(C#N)c1cccc(Oc2ccccc2)c1` (stereo not drawn) [alpha-Cyhalothrin]: the LEL in [9] (setting [41]) amounted to 1.5 mg/kg-day. For the same compound, the NOEL in series [9] (setting [41]) came out at 0.5 mg/kg-day; in series [17] (neurotoxicity), 1 mg/kg-day; in [17] (short-term) it was 1 mg/kg-day. Further, the NOAEL in series [16] turned out to be 1 mg/kg-day. For the same compound, the LOEL in [18] (chronic) and in series [18] was 1 mg/kg-day each time.
Regarding `CCNc1nc(Cl)nc(NC(C)C)n1` [Atrazine], the LOAEL in series [9] (setting [42]) stood at 25 mg/kg-day; in series [19] (F) it was 33.8 mg/kg-day; in series [19] (M), 33.6 mg/kg-day; in [21], 1 mg/kg-day. Moreover, the NOAEL in [9] (setting [42]) amounted to 3.5 mg/kg-day; in [19] (M/F), 4.97 mg/kg-day; in series [20], 1 mg/kg-day. Further, the NOEL in [14] (Whole body: Decreased weight gain) was determined as 3.5 mg/kg-day.

Values taken from EPA's ToxValDB 9.5.
